This note sets out measurements from ChEMBL document CHEMBL1157764, “Conserved high activity binding peptides are involved in adhesion of two detergent-resistant membrane-associated merozoite proteins to red blood cells during invasion” (J Med Chem, 2010).

The species named for this experiment is Homo sapiens. In words: Binding affinity to RBC membrane receptor in human RBCs assessed as specific binding activity measured as ratio of specifically bound peptide/added peptide by gamma counter.
As to `CC(C)C[C@H](NC(=O)[C@@H](NC(=O)[C@@H](N)CC(=O)O)C(C)C)C(=O)N[C@@H](CO)C(=O)N[C@@H](CCC(=O)O)C(=O)N[C@@H](CO)C(=O)N[C@@H](CC(N)=O)C(=O)N[C@@H](CC(N)=O)C(=O)N[C@@H](CCC(=O)O)C(=O)N[C@@H](CC(N)=O)C(=O)N[C@@H](CCCCN)C(=O)N[C@@H](CCC(=O)O)C(=O)N[C@H](C(=O)N[C@@H](CO)C(=O)N[C@@H](CC(=O)O)C(=O)N[C@@H](CC(=O)O)C(=O)N[C@@H](C)C(=O)N[C@H](C(=O)N[C@@H](Cc1cnc[nH]1)C(=O)N[C@@H](Cc1ccc(O)cc1)C(=O)O)[C@@H](C)O)[C@@H](C)O`, the Activity is greater than 2%. As to `CC(C)C[C@H](NC(=O)[C@H](CC(N)=O)NC(=O)[C@H](CC(C)C)NC(=O)[C@@H]1CCCN1C(=O)[C@H](CC(N)=O)NC(=O)[C@H](CCCCN)NC(=O)[C@H](Cc1ccc(O)cc1)NC(=O)[C@@H](N)CS)C(=O)N[C@@H](CCCCN)C(=O)N[C@H](C(=O)N[C@@H](CC(C)C)C(=O)N[C@@H](CCC(=O)O)C(=O)N[C@H](C(=O)N[C@@H](CC(C)C)C(=O)N[C@@H](CC(C)C)C(=O)N[C@@H](CCCCN)C(=O)N[C@@H](CCCCN)C(=O)N[C@@H](CC(N)=O)C(=O)N[C@@H](Cc1ccc(O)cc1)C(=O)N[C@@H](Cc1ccc(O)cc1)C(=O)O)C(C)C)C(C)C`, the Activity is greater than 2%.

As for `CC(C)[C@H](NC(=O)[C@H](CC(=O)O)NC(=O)[C@H](CC(=O)O)NC(=O)[C@H](CC(=O)O)NC(=O)[C@H](CO)NC(=O)[C@H](CCC(=O)O)NC(=O)[C@H](CC(N)=O)NC(=O)[C@H](CC(=O)O)NC(=O)[C@H](CCC(N)=O)NC(=O)[C@H](CC(N)=O)NC(=O)[C@H](CCCCN)NC(=O)[C@H](CC(N)=O)NC(=O)[C@H](CCC(=O)O)NC(=O)[C@@H](N)CC(=O)O)C(=O)N[C@@H](CC(N)=O)C(=O)N[C@@H](CC(N)=O)C(=O)N[C@@H](CC(N)=O)C(=O)N[C@@H](CC(N)=O)C(=O)N[C@@H](CC(N)=O)C(=O)N[C@@H](CC(N)=O)C(=O)N[C@@H](Cc1ccc(O)cc1)C(=O)N[C@@H](CC(N)=O)C(=O)N[C@@H](CC(N)=O)C(=O)N[C@@H](CC(=O)O)C(=O)N[C@@H](CC(=O)O)C(=O)O`, the Activity was greater than 2%. Consider `CC(C)[C@H](NC(=O)[C@H](Cc1ccc(O)cc1)NC(=O)[C@@H](N)CCC(=O)O)C(=O)N[C@@H](CC(N)=O)C(=O)N[C@@H](C)C(=O)N[C@@H](CC(N)=O)C(=O)N[C@@H](CO)C(=O)N[C@@H](CO)C(=O)N[C@@H](CCC(=O)O)C(=O)N[C@@H](CO)C(=O)N[C@@H](CO)C(=O)N[C@@H](CCC(=O)O)C(=O)N[C@@H](CCC(=O)O)C(=O)N[C@@H](CC(=O)O)C(=O)N[C@H](C(=O)N[C@H](C(=O)N1CCC[C@H]1C(=O)N[C@@H](CC(N)=O)C(=O)N[C@@H](CCC(=O)O)C(=O)N[C@H](C(=O)O)[C@@H](C)O)[C@H](C)O)[C@@H](C)O`, for which the Activity was greater than 2%. Then `CC[C@H](C)[C@H](NC(=O)[C@@H](N)CO)C(=O)N[C@@H](CCC(=O)O)C(=O)N[C@@H](C)C(=O)N[C@@H](CO)C(=O)N[C@@H](CCC(=O)O)C(=O)N[C@@H](CO)C(=O)N[C@@H](CO)C(=O)N[C@@H](CCC(N)=O)C(=O)N[C@@H](CCCCN)C(=O)N[C@@H](CC(=O)O)C(=O)N[C@@H](CCC(=O)O)C(=O)N[C@H](C(=O)N[C@@H](CCCCN)C(=O)N[C@@H](CCC(=O)O)C(=O)N[C@H](C(=O)N[C@@H](CCC(=O)O)C(=O)N[C@@H](CC(=O)O)C(=O)N[C@@H](CCCCN)C(=O)N[C@@H](CCC(=O)O)C(=O)N[C@@H](Cc1ccc(O)cc1)C(=O)O)[C@H](C)O)[C@@H](C)O`, with greater than 2%; and `CC[C@H](C)[C@H](NC(=O)[C@@H](NC(=O)[C@H](CC(=O)O)NC(=O)[C@H](CC(N)=O)NC(=O)[C@H](Cc1cnc[nH]1)NC(=O)[C@@H](NC(=O)[C@H](Cc1ccc(O)cc1)NC(=O)[C@H](CS)NC(=O)[C@@H](N)CCCNC(=N)N)C(C)C)C(C)C)C(=O)N[C@@H](CCCCN)C(=O)N[C@@H](Cc1ccccc1)C(=O)NCC(=O)N[C@@H](CCC(=O)O)C(=O)N[C@@H](CCC(=O)O)C(=O)N[C@@H](CC(N)=O)C(=O)N[C@@H](CO)C(=O)N[C@@H](CC(C)C)C(=O)N[C@@H](CCCCN)C(=O)N[C@@H](CS)C(=O)N[C@@H](CO)C(=O)O`, with greater than 2%. For `CC[C@H](C)[C@H](NC(=O)[C@H](C)NC(=O)[C@@H](NC(=O)[C@H](Cc1ccccc1)NC(=O)[C@@H](NC(=O)[C@@H](NC(=O)[C@H](CC(N)=O)NC(=O)[C@@H](C)N)[C@@H](C)CC)[C@@H](C)CC)[C@@H](C)CC)C(=O)N[C@H](C(=O)N[C@@H](CO)C(=O)N[C@H](C(=O)N[C@H](C(=O)N[C@@H](CO)C(=O)N[C@@H](CC(C)C)C(=O)N[C@@H](CO)C(=O)N[C@H](C(=O)N[C@@H](CO)C(=O)N[C@@H](CO)C(=O)N[C@@H](Cc1ccccc1)C(=O)N[C@H](C(=O)N[C@@H](Cc1ccc(O)cc1)C(=O)O)[C@@H](C)CC)[C@@H](C)CC)[C@@H](C)CC)[C@@H](C)CC)[C@@H](C)CC`, the Activity was greater than 2%. Turning to `CC[C@H](C)[C@H](NC(=O)[C@H](C)NC(=O)[C@H](CCC(=O)O)NC(=O)[C@H](C)NC(=O)[C@H](CC(=O)O)NC(=O)[C@@H](NC(=O)[C@H](CO)NC(=O)[C@H](CC(=O)O)NC(=O)[C@H](CCC(=O)O)NC(=O)[C@H](CC(=O)O)NC(=O)[C@H](CC(N)=O)NC(=O)[C@H](CCC(N)=O)NC(=O)[C@H](CCC(N)=O)NC(=O)[C@H](CC(C)C)NC(=O)[C@H](CCC(=O)O)NC(=O)[C@@H](N)CCC(=O)O)[C@@H](C)O)C(=O)N[C@@H](CC(=O)O)C(=O)N[C@@H](CCCCN)C(=O)N[C@@H](CCC(=O)O)C(=O)N[C@@H](CCC(=O)O)C(=O)N[C@H](C(=O)N[C@@H](CCC(=O)O)C(=O)N[C@@H](Cc1ccc(O)cc1)C(=O)O)C(C)C`, the Activity is greater than 2%.

On to `CC[C@H](C)[C@H](NC(=O)[C@H](CC(C)C)NC(=O)[C@@H](N)C(C)C)C(=O)N[C@@H](C)C(=O)N[C@@H](CCC(=O)O)C(=O)NCC(=O)N[C@@H](Cc1ccc(O)cc1)C(=O)N[C@@H](CCCCN)C(=O)N[C@@H](CCCNC(=N)N)C(=O)N[C@H](C(=O)N[C@@H](CC(N)=O)C(=O)N[C@@H](CCC(=O)O)C(=O)N[C@@H](CCCCN)C(=O)N[C@@H](CCC(=O)O)C(=O)N[C@@H](CC(=O)O)C(=O)N[C@H](C(=O)N[C@@H](CC(=O)O)C(=O)N[C@@H](CCCNC(=N)N)C(=O)N[C@@H](CCCNC(=N)N)C(=O)O)[C@@H](C)CC)[C@@H](C)CC`, for which the Activity was greater than 2%. Turning to `CC[C@H](C)[C@H](NC(=O)[C@H](CC(C)C)NC(=O)[C@H](CS)NC(=O)[C@@H](NC(=O)[C@H](CC(C)C)NC(=O)[C@H](Cc1ccccc1)NC(=O)[C@H](CCC(N)=O)NC(=O)[C@H](CC(C)C)NC(=O)[C@H](CC(C)C)NC(=O)[C@H](CC(C)C)NC(=O)[C@@H](NC(=O)[C@H](Cc1cnc[nH]1)NC(=O)[C@H](CC(C)C)NC(=O)[C@@H](NC(=O)[C@H](Cc1ccccc1)NC(=O)[C@H](Cc1ccccc1)NC(=O)[C@@H]1CCCN1C(=O)[C@@H](NC(=O)[C@H](CCCCN)NC(=O)[C@@H](N)CCSC)[C@@H](C)CC)[C@@H](C)CC)[C@@H](C)CC)[C@@H](C)CC)C(=O)N[C@@H](Cc1ccc(O)cc1)C(=O)O`, the Activity was greater than 2%. For the compound `CC[C@H](C)[C@H](NC(=O)[C@H](CC(N)=O)NC(=O)[C@@H](NC(=O)[C@H](CC(N)=O)NC(=O)CNC(=O)[C@H](CC(=O)O)NC(=O)[C@H](CCCCN)NC(=O)[C@@H](NC(=O)[C@@H](NC(=O)[C@@H](NC(=O)[C@@H]1CCCN1C(=O)[C@H](CCC(=O)O)NC(=O)[C@H](CCC(=O)O)NC(=O)[C@H](CC(N)=O)NC(=O)[C@@H](N)CCCCN)C(C)C)[C@@H](C)CC)C(C)C)[C@@H](C)CC)C(=O)N[C@@H](CCCCN)C(=O)N[C@@H](CO)C(=O)N[C@@H](C)C(=O)N[C@@H](CC(C)C)C(=O)N[C@@H](CC(C)C)C(=O)N[C@@H](Cc1ccc(O)cc1)C(=O)O`, the Activity is greater than 2%. Consider `CC[C@H](C)[C@H](NC(=O)[C@H](CCC(N)=O)NC(=O)CNC(=O)[C@H](C)NC(=O)[C@@H](N)CC(C)C)C(=O)N[C@@H](CC(N)=O)C(=O)NCC(=O)N[C@@H](CC(C)C)C(=O)N[C@@H](CC(N)=O)C(=O)N[C@@H](CC(=O)O)C(=O)N[C@@H](CC(C)C)C(=O)N[C@@H](Cc1ccc(O)cc1)C(=O)NCC(=O)N[C@@H](CCCNC(=N)N)C(=O)N[C@@H](CC(N)=O)C(=O)N[C@@H](CO)C(=O)N[C@@H](CCCCN)C(=O)N[C@@H](CCCCN)C(=O)N[C@H](C(=O)N[C@@H](Cc1ccc(O)cc1)C(=O)O)[C@@H](C)O`, for which the Activity is less than 2%. Turning to `CC[C@H](C)[C@H](NC(=O)[C@H](CCCNC(=N)N)NC(=O)[C@H](CC(C)C)NC(=O)[C@H](CC(=O)O)NC(=O)[C@H](CCC(=O)O)NC(=O)[C@@H](NC(=O)[C@@H](NC(=O)[C@H](CO)NC(=O)CNC(=O)[C@H](CCCCN)NC(=O)[C@@H](N)CCCCN)[C@@H](C)CC)[C@@H](C)O)C(=O)N[C@H](C(=O)N[C@@H](CC(N)=O)C(=O)N[C@@H](CC(=O)O)C(=O)N[C@@H](CC(C)C)C(=O)N[C@@H](CCC(=O)O)C(=O)N1CCC[C@H]1C(=O)N[C@@H](CC(C)C)C(=O)N[C@@H](CC(=O)O)C(=O)N[C@@H](Cc1ccc(O)cc1)C(=O)O)C(C)C`, the Activity is greater than 2%. Turning to `CC[C@H](C)[C@H](NC(=O)[C@H](Cc1ccc(O)cc1)NC(=O)[C@H](CCCCN)NC(=O)[C@H](CC(N)=O)NC(=O)[C@@H](N)CCCCN)C(=O)N[C@@H](CO)C(=O)N[C@@H](CC(C)C)C(=O)N[C@@H](Cc1ccc(O)cc1)C(=O)N[C@@H](CC(N)=O)C(=O)N[C@@H](CCCCN)C(=O)N[C@H](C(=O)N[C@@H](CCCCN)C(=O)N[C@H](C(=O)N[C@H](C(=O)N[C@@H](CCSC)C(=O)N1CCC[C@H]1C(=O)N[C@@H](CCC(=O)O)C(=O)N[C@@H](CC(C)C)C(=O)N[C@@H](Cc1ccccc1)C(=O)N[C@@H](CC(=O)O)C(=O)O)[C@@H](C)O)[C@H](C)O)C(C)C`, the Activity was greater than 2%. Take `CC[C@H](C)[C@H](NC(=O)[C@H](Cc1ccccc1)NC(=O)[C@H](CC(C)C)NC(=O)[C@H](CC(C)C)NC(=O)[C@H](CC(C)C)NC(=O)[C@H](CC(C)C)NC(=O)[C@@H](NC(=O)[C@@H](NC(=O)[C@H](CC(C)C)NC(=O)[C@H](CC(C)C)NC(=O)[C@H](C)NC(=O)[C@H](CC(N)=O)NC(=O)[C@H](CO)NC(=O)[C@H](CCSC)NC(=O)[C@H](C)NC(=O)[C@H](Cc1ccccc1)NC(=O)[C@@H](N)Cc1ccccc1)C(C)C)[C@@H](C)CC)C(=O)N[C@@H](CCC(=O)O)C(=O)N[C@@H](Cc1ccccc1)C(=O)N[C@@H](CC(C)C)C(=O)N[C@@H](Cc1ccc(O)cc1)C(=O)O`: the Activity is greater than 2%.
